Data set [1] can be described thus: Chemical stability in HBSS buffer (pH 7.4) / simulated gastric fluid. The format is physicochemical. Particulars: chemical hydrolysis / HBSS buffer. The method, boiled down: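 Prodrugs at 10 μM were incubated at 37° C for 1 h in simulated gastric fluid (pH 1.2) or HBSS (pH 7.4), sampled at 0, 30 and 60 min. Remaining prodrug was quantified by LC/MS/MS (positive ESI) as analyte/internal standard peak-area ratio, expressed as percentage remaining.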

A short description of data set [2]: Metabolic stability in mouse plasma. The format is in vitro ADME. Particulars: 10 μM, 37° C. The method, boiled down:
(§1)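 Prodrugs at 10 μM were incubated in plasma or liver microsomes at 37° C, with triplicate samples taken at 0, 30 and 60 min and quenched in cold acetonitrile. Loss of prodrug was followed by LC/MS/MS in positive electrospray mode. Percent remaining came from the analyte-to-internal-standard peak-area ratio.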

Data set [3] can be described thus: Metabolic stability in mouse liver microsomes. The format is in vitro ADME. Particulars: 10 μM, 37° C. The method, boiled down: as §1
The nature of data set [4]: Metabolic stability in human plasma. It counts as in vitro ADME. Particulars: 10 μM, 37° C. The method, boiled down: as §1
The nature of data set [5]: Metabolic stability in human liver microsomes. The format is in vitro ADME. Particulars: 10 μM, 37° C. The method, boiled down:
as §1

Data set [6] can be described thus: Metabolic stability in dog plasma. It counts as in vitro ADME. Particulars: 10 μM, 37° C. The procedure:
(§2) For metabolic stability, plasma (mouse, dog, monkey and human) and liver microsomes (mouse, dog, monkey and human) were used. For stability, prodrugs (10 μM) were spiked in each matrix and incubated in an orbital shaker at 37° C. At predetermined times (0, 30 and 60 min), 100 μL aliquots of the mixture in triplicate were removed and the reaction quenched by addition of three times the volume of ice cold acetonitrile spiked with the internal standard (losartan 5 μM). The samples were vortexed for 30 s and centrifuged 12000 g for 10 min. 50 μL supernatant diluted with 50 μL water was transferred to a 250 μL polypropylene vial sealed with a Teflon cap. Prodrug disappearance was monitored over time using a liquid chromatography and tandem mass spectrometry (LC/MS/MS) method as described below.
(§3) For LC/MS/MS, prodrugs were separated with Thermo Scientific Accela UPLC system coupled to Accela open autosampler on an Agilent C18 (100×2.1 mm id) UPLC column. The autosampler was temperature controlled and operating at 10° C. The mobile phase used for the chromatographic separation was composed of acetonitrile/water containing 0.1% formic acid and was run at a flow rate of 0.5 mL/minute for 4.5 minutes using gradient elution. The column effluent was monitored using TSQ Vantage triple-quadrupole mass spectrometric detector, equipped with an electrospray probe set in the positive ionization mode. Samples were introduced into the ionization source through a heated nebulized probe (350° C.).
(§4) For quantification of compound remaining, disappearance of prodrugs was measured from ratio of peak areas of analyte to IS. Percentage remaining was calculated in the following manner: […]

Data set [7] can be described thus: Metabolic stability in monkey plasma. Particulars: 10 μM, 37° C. It counts as in vitro ADME. On the procedure:
as §2, §3, §4

A short description of data set [8]: In vivo pharmacokinetics in mice, peroral, bioanalysis method 1 (total prodrug exposure). Particulars: mice, oral dosing. The method, boiled down:
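Mice dosed orally; plasma sampled by cardiac puncture 0–4 h (n=3 per time) or at 30 min only. Total prodrug measured after methanol extraction and n-butanol/3N HCl derivatization by UPLC-MS/MS. Non-compartmental PK: observed Cmax/Tmax, AUC by log-linear trapezoidal rule, t1/2=0.693/ke.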

Data set [9] is described as follows: In vitro metabolic stability screen in plasma and liver subcellular fractions (results in words). It counts as in vitro ADME. Particulars: 60 min incubation. The procedure: as §2, §3
For quantification of compound remaining, disappearance of prodrugs was measured from ratio of peak areas of analyte to IS. Percentage remaining was calculated in the following manner:
In general, the prodrugs were screened by an in vitro metabolic stability screen, and if positive, followed by an in vivo single time point pharmacokinetic study, and in select cases, an in vivo full time course pharmacokinetic study (FIG. 3). In this Example, the four acidic functional groups in 2-PMPA were systematically capped. The carboxylic acids were first masked with simple alkyl esters (Compounds 1, 2, and 3). In vitro chemical and metabolic stability of the prodrugs then were conducted, following 60 min incubation in plasma stability screens for prodrugs.

Data on one molecule can be found in US9988407B2, “Prodrugs of prostate specific membrane antigen (PSMA) inhibitor” (THE JOHNS HOPKINS UNIVERSITY, priority 2014, dated 2018).

Values joined by “and” are separate entries in the source; they are usually repeats but may differ in a detail not shown here. Equal values may be shown once.

Regarding `CC(C)OC(=O)OCOC(=O)C(CCC(=O)O)CP(=O)(OCOC(=O)OC(C)C)OCOC(=O)OC(C)C` (stereo not drawn) [Compound 10], the “chemical stability” value in [1] is “sufficient chemical stability”. The Percentage remaining was found to be 100% in data set [2] (0 min); 1% in data set [2] (30 min); 0% in [2] (60 min); 100% in data set [3] (0 min); 1% in data set [3] (30 min); 0% in data set [3] (60 min). For the same molecule, the Percentage remaining is 100% in data set [4] (0 min); 102% and 64% in data set [4] (30 min, listed as TRIS-POC); 77% and 48% in [4] (60 min, listed as TRIS-POC); 100% in data set [5] (0 min); 5% and 3% in data set [5] (30 min, listed as TRIS-POC); 0% in data set [5] (60 min). The Percentage remaining in data set [6] (0 min) was found to be 100%; in data set [6] (30 min) it was 67%; in [6] (60 min) it was 28%; in data set [7] (0 min), 100%; in [7] (30 min), 50%; in data set [7] (60 min), 11%. Besides, the “permeability in vivo” value in [8] is “highest permeability”. The “in vitro metabolic stability” value in data set [9] was “instability in plasma and liver subcellular fractions”.
